{"source": "patent US20060046976A1", "about": "“Method for increasing the bone mineral density and bone micro-architecture or connectivity of a mammal using N-acylated glucosamines” (priority 2004, published 2006)", "system": "SCW-arthritis rats", "assay": "Three-dimensional isosurface of tibia (bone erosion), SCW-arthritis rats", "type": "in vivo, Lewis type rats", "conditions": "GlcNBu treated, especially high dose", "description": "In this experiment performed and described herein, there were four groups of Lewis type rats, consisting of eight (8) animals in each group. Lewis type rats had experimental arthritis induced by a single intra-peritoneal injection of streptococcal cell wall antigen (SCW). This type of arthritis has an acute and chronic phase and affects mostly the distal joints in the hind limbs of the animals, and, less so, the knees and hips. Groups 1-3, inclusive, had inflammatory arthritis induced. The compound used in the experiment was used to supplement normal rat chow feed on a daily basis. Feed and water were unrestricted. […] All the dissected femurs and tibiae were scanned with dual energy x-ray absorptiometry (DXA) were measured at the distal femur, and proximal tibia using a user defined region of interest (ROI). • Micro-CT imaging protocol. […] The reconstructed tibia images were analyzed with MicroView 2.0 software (GE Healthcare, London, ON) in two and three dimensions. • Three-dimensional trabecular bone measurements. […] On 3D analysis, the tissue volume (3D-TV, mm3) and trabecular bone volume (3D-BV, mm3) were measured directly, and the fractional trabecular bone volume (3D-BV/TV, %) was calculated. […]"}
{"compound": "CCCC(=O)N[C@H]1C(O)O[C@H](CO)[C@@H](O)[C@@H]1O", "note": "(stereo partly drawn) [GlcNBu, N-butyryl-D-glucosamine]", "values": [{"measurement": "bone erosion at the joint margin (isosurfaces)", "result": "effectively protects bone from further erosion"}]}
